Measured values as given in patent publication US4559362A, “Immunopotentiator” (Zaidan Hojin Biseibutsu Kagaku Kenkyu Kai, priority 1982, dated 1985).
≈ marks a conversion by molar mass, not a printed value. Where two headings read alike, the source gives them in different places.

Assays:
[1] = Toxicity given intravenously to mice; format: in vivo; conditions: 250 mg/kg intravenously
Description: Spermidine used in this invention has a very low toxicity. It is not toxic at a dose of 250 mg/kg when given intravenously to mice.

[2] = tested on: IMC cancer cells; assay: Growth inhibitory effect on cultured IMC cancer cells; format: cell-based; conditions: 48 hours, 37° C., read-out: concentration at which 50% of the original cells were inhibited from growth
Description: (§1) A study was conducted on the growth inhibitory effect of spermidine on cultures of IMC cancer cells and L-1210 cells. IMC cancer cells were cultured in an RPMI 1640 medium containing 10% bovine fetus serum and 2-mercaptoethanol, and L-1210 cells in an MEM medium containing 10% calf serum, for 48 hours at 37° C. in 5% carbon dioxide. The number of cultured cells was counted with a Coulter counter to evaluate the degree of cell proliferation. Spermidine was added at the start of incubation.

[3] = tested on: L-1210 cells; assay: Growth inhibitory effect on cultured L-1210 cells; format: cell-based; conditions: Mus musculus, L1210, 48 hours, 37° C., read-out: concentration at which 50% of the original cells were inhibited from growth
Description: as §1

[4] = tested on: interleukine-2 production (Thymocytes); assay: Interleukine-2 production by spleen cells, activity of promoting the division of thymocytes; format: cell-based, CDF1 mice; conditions: for activity at 0.001 µg/mL / activity at 0.01 µg/mL / activity at 0.1 µg/mL / activity at 1 µg/mL: Mus musculus, Thymocyte, 24 h, control = 100, read-out: ^3 H-thymidine incorporation, Thymocytes; for activity at 0.001 µg/mL: 0.001 μg/ml; for activity at 0.01 µg/mL: 0.01 μg/ml; for activity at 0.1 µg/mL: 0.1 μg/ml; for activity at 1 µg/mL: 1 μg/ml
Description: (§2) The effect of spermidine on the production of interleukine was investigated in accordance with the method of Larsson et al. (Larsson, E-L: Mechanism of T cell activation II. Antigen- and lectin-dependent acquisition of responsiveness to TCGF is a nonmitogenic, active response of resting T cells. J. Immunol. 126, 1323-1326, 1981).
(§3) Spermidine in a varying concentration was added to 1×10^7 spleen cells/ml of CDF1 mice. In the presence or absence of added concanavalin A (2 μg/ml), the stimulant of interleukine-2 production, the cells were then cultured in a cell incubator kept at 37° C. and at a carbon dioxide concentration of 5% for 24 hours. After completion of the incubation, α-methylmannoside was added to the supernatant to inactivate concanavalin A. The supernatant was collected to examine its interleukine-2 activity. The interleukine-2 activity was determined by the activity of promoting the proliferation of T blast cells and the activity of promoting the division of thymocytes. The latter two activities were determined by measuring ^3 H-thymidine incorporations to both types of cells.

[5] = tested on: IMC ascites tumor; assay: Concomitant treatment with bleomycin and spermidine on IMC ascites tumor, survival; format: in vivo, CDF1 mice
Description: (§4) The pharmacological effects of spermidine will be illustrated by reference to the following experimental examples, in which spermidine was administered as its phosphate dissolved in physiological saline.
(c) 1×10^6 IMC cancer cells were transplanted into CDF1 mice by intraperitoneal injection (Day 0). Bleomycin (5 mg/kg) was administered once daily for 5 consecutive days, and spermidine (5 mg/kg) was administered a total of 10 times on alternative days. The effect of concomitant treatment with spermidine and the anticancer drug was evaluated by considering the number of days that the mice survived.

[6] = tested on: interleukine-2 production (T blast cells); assay: Interleukine-2 production by spleen cells, activity of promoting the proliferation of T blast cells; format: cell-based, CDF1 mice; conditions: for activity at 0.001 µg/mL / activity at 0.01 µg/mL / activity at 0.1 µg/mL / activity at 1 µg/mL: Mus musculus, 24 h, control = 100, read-out: ^3 H-thymidine incorporation, T blast cells; for activity at 0.001 µg/mL: 0.001 μg/ml; for activity at 0.01 µg/mL: 0.01 μg/ml; for activity at 0.1 µg/mL: 0.1 μg/ml; for activity at 1 µg/mL: 1 μg/ml
Description: as §2, §3

[7] = tested on: suppressor cells against DTH; assay: Inhibition of the elevation of suppressor cells against DTH (spleen cell transfer), sole swelling; format: in vivo, CDF1 mice; conditions: transferred suppressor cells; for % suppression: untreated suppressor cells 53
Description: as §4
Experiments were conducted to transfer suppressor cells, in accordance with the method of Yamaguchi et al. (Yamaguchi, K. and Kishimoto, S.: Distinction between suppressors of the delayed-type hypersensitivity and the humoral response to sheep erythrocytes. Immunology. 35, 721-731, 1978). CDF1 mice (8 weeks old, female) were intravenously administered with 10^8 sheep erythrocytes, the amount enough to induce the elevation of suppressor cells against DTH. The objective was to promote the production of suppressor cells. Two days later, supermidine was intraperitoneally injected once daily, and this treatment was continued for 3 days. Five days later, spleen cells were collected from the mice, and 4.5×10^7 cells of them were transferred to normal syngenic mice by i.v. injection. Simultaneously, 10^5 sheep erythrocytes, the amount enough to obtain the optimal reaction, was i.v. injected for immunization.
Four days later, 10^8 sheep erythrocytes were subcutaneously injected to the soles of the mice to induce the reaction. Twenty-four hours later, swellings on the soles were measured to evaluate the efficacy of spermidine.

[8] = tested on: S-180 sarcoma; assay: Antitumor effect on S180 sarcoma transplanted subcutaneously into ICR mice; format: in vivo; conditions: for Weight of tumor ± S.D.: 10 times on alternative days, day 30, in mg (unit assumed)
Description: as §4
(a) The antitumor effect of spermidine was investigated on IMC carcinoma successively transplanted into CDF1 mice and on S180 sarcoma transplanted into ICR mice. 1×10^6 tumor cells of each of the above type were transplanted subcutaneously into such mice (Day 0). From Day 1 onwards, spermidine was intraperitoneally injected a total of 10 times (once daily on alternative days). Thirty days after transplantation of tumor cells, the tumor was removed and weighed to evaluate the effect of spermidine.

NCCCCNCCCN [Spermidine, spermidine]
toxicity [1]: not toxic
IC50 [2]: 2.4 µg/mL (≈ 16.5 µM)
IC50 [3]: 2.8 µg/mL (≈ 19.3 µM)
optimal concentration (interleukin-2 production) [4]: 0.1 µg/mL
activity at 0.001 µg/mL ([4]; with Con A (2 μg/ml)): 126%
activity at 0.001 µg/mL ([4]; without Con A): 171%
activity at 0.01 µg/mL ([4]; with Con A (2 μg/ml)): 130%
activity at 0.01 µg/mL ([4]; without Con A): 255%
activity at 0.1 µg/mL ([4]; with Con A (2 μg/ml)): 149%
activity at 0.1 µg/mL ([4]; without Con A): 281%
activity at 1 µg/mL ([4]; with Con A (2 μg/ml)): 135%
activity at 1 µg/mL ([4]; without Con A): 90%
Survival rate on Day 60 ([5]; spermidine (5 mg/kg) alone): 0/10
Survival period ([5]; spermidine (5 mg/kg) alone, 10 times on alternative days): 20.1 ± 2.3 days
Increase of life span ([5]; spermidine (5 mg/kg) alone, control = 100): 114%
life span increase against the control group ([5]; spermidine alone): 14%
optimal concentration (interleukin-2 production) [6]: 0.1 µg/mL
activity at 0.001 µg/mL ([6]; with Con A (2 μg/ml)): 94%
activity at 0.001 µg/mL ([6]; without Con A): 137%
activity at 0.01 µg/mL ([6]; with Con A (2 μg/ml)): 153%
activity at 0.01 µg/mL ([6]; without Con A): 152%
activity at 0.1 µg/mL ([6]; with Con A (2 μg/ml)): 157%
activity at 0.1 µg/mL ([6]; without Con A): 166%
activity at 1 µg/mL ([6]; with Con A (2 μg/ml)): 152%
activity at 1 µg/mL ([6]; without Con A): 136%
Swelling on the sole ([7]; 10 μg/mouse i.p. once daily for 3 days): 8.0 ± 0.3 × 0.1 mm
% suppression ([7]; 10 μg/mouse): 42%
Swelling on the sole ([7]; 100 μg/mouse i.p. once daily for 3 days): 10.2 ± 0.4 × 0.1 mm
% suppression ([7]; 100 μg/mouse): 26%
Swelling on the sole ([7]; 1000 μg/mouse i.p. once daily for 3 days): 10.9 ± 0.8 × 0.1 mm
% suppression ([7]; 1000 μg/mouse): 21%
% inhibition (weight of tumor) ([8]; 0.05 mg/kg/day i.p.): 9%
Weight of tumor ± S.D. ([8]; 0.05 mg/kg/day i.p.): 5193 ± 1522
% inhibition (weight of tumor) ([8]; 0.5 mg/kg/day i.p.): 35%
Weight of tumor ± S.D. ([8]; 0.5 mg/kg/day i.p.): 3689 ± 1331
% inhibition (weight of tumor) ([8]; 5 mg/kg/day i.p.): 63%
Weight of tumor ± S.D. ([8]; 5 mg/kg/day i.p.): 2087 ± 1040
% inhibition (weight of tumor) ([8]; 50 mg/kg/day i.p.): 43%
Weight of tumor ± S.D. ([8]; 50 mg/kg/day i.p.): 3245 ± 1106
